Tested on: A549 cells
Experiment: Intracellular ROS generation (H2DCFDA)
Type: cell-based, human
Details: 2 μM 1 h + 6 h, light λ > 610 nm, 23 mW cm-2, 14 J cm-2
Protocol: The enzyme-responsive intracellular ROS generation of 1 was then examined in A549 and HeLa cells using 2′,7′-dichlorodihydrofluorescein diacetate (H2DCFDA) as the ROS fluorescent probe. Once H2DCFDA is internalized, it will be deacetylated by the intracellular esterase, followed by oxidation by the intracellular ROS, leading to the formation of the highly fluorescent 2′,7′-dichlorofluorescein (DCF).[79] The cells were first pretreated with SB-3CT (10 μM) and/or CA-074 Me (25 μM) or simply the neat medium for 2 h, followed by incubation with 1 (2 μM) for a further 1 h. As a negative control, the cells were simply incubated with 14 (2 μM) for 1 h. After being rinsed with PBS, the cells were incubated in the medium for a further 6 h. Finally, the cells were incubated with H2DCFDA (10 μM) for 30 min, followed by dark or light (λ > 610 nm, 23 mW cm^–2, 14 J cm^–2) treatment. […] It can be seen that for the MMP-2-positive A549 cells, the fluorescence due to DCF was in the following order: 1 without pretreatment of the cells with the two inhibitors > 1 with pretreatment of the cells with either one of the two inhibitors > 1 with pretreatment of the cells with both inhibitors ≈ 14. […] This trend, which reflects the extent of recovery of ROS generation, was in accord with that of the fluorescence recovery inside the cells (Figure 5c,d). For the MMP-2-negative HeLa cells, the intracellular fluorescence remained very weak even for 1 without pretreatment of the cells with the two inhibitors because of the intrinsically low MMP levels in the cells. […]
or ER-Tracker Green (Thermo Fisher Scientific Inc., E34251) (1 μM for 15 min) in a serum-free medium at 37 °C. […] All the trackers were excited at 488 nm and their fluorescence was monitored at 500−570 nm, while the DSBDP moiety was excited at 638 nm and its fluorescence was monitored at 650−750nm. The images were digitized and analyzed using a Leica Application Suite X software. […]
at 500−550 nm. The images were digitized and analyzed using a Leica Application Suite X […]

SMILES	intracellular ROS generation (DCF fluorescence) (pretreatment with both SB-3CT (10 μM) and CA-074 Me (25 μM) 2 h)	intracellular ROS generation (DCF fluorescence) (no inhibitor pretreatment)
CCN(CC)c1ccc2nc3ccc(/N=N/c4ccc(N(C)CCCNC(=O)OC[C@@H]5[C@@H]6CCc7nnn(CC(=O)NCCCC[C@@H]8NC(=O)CNC(=O)[C@H](CCCCN)NC(=O)[C@H](CCCNC(=N)N)NC(=O)[C@H](C(C)C)NC(=O)CNC(=O)[C@H](CC(C)C)NC(=O)[C@@H]9CCCN9C(=O)[C@H](CCCCN)NC(=O)[C@@H](N)CSCc9cc(COc%10ccc(C%11=C%12C(C)=C(I)C(/C=C/c%13ccc(OCCOCCOCCOC)cc%13)=[N+]%12[B-](F)(F)n%12c(/C=C/c%13ccc(OCCOCCOCCOC)cc%13)c(I)c(C)c%12%11)cc%10)cc(c9)CSC[C@@H](C(N)=O)NC(=O)[C@H](CCCCN)NC(=O)[C@H](CCCCN)NC(=O)CNC(=O)[C@H](CC(C)C)NC(=O)[C@H](Cc9ccccc9)NC(=O)CNC(=O)[C@H](CCCCN)NC(=O)CNC8=O)c7CC[C@@H]65)cc4)cc3[n+](-c3ccccc3)c2c1 [compound 1]	could hardly be observed	–
CCN(CC)c1ccc2nc3ccc(/N=N/c4ccc(N(C)CCCNC(=O)OC[C@@H]5[C@@H]6CCc7nnn(CC(=O)NCCCC[C@@H]8NC(=O)CNC(=O)[C@H](CCCCN)NC(=O)CNC(=O)CNC(=O)CNC(=O)CNC(=O)CNC(=O)[C@H](CCCCN)NC(=O)[C@@H](N)CSCc9cc(COc%10ccc(C%11=C%12C(C)=C(I)C(/C=C/c%13ccc(OCCOCCOCCOC)cc%13)=[N+]%12[B-](F)(F)n%12c(/C=C/c%13ccc(OCCOCCOCCOC)cc%13)c(I)c(C)c%12%11)cc%10)cc(c9)CSC[C@@H](C(N)=O)NC(=O)[C@H](CCCCN)NC(=O)[C@H](CCCCN)NC(=O)CNC(=O)CNC(=O)CNC(=O)CNC(=O)[C@H](CCCCN)NC(=O)CNC8=O)c7CC[C@@H]65)cc4)cc3[n+](-c3ccccc3)c2c1 [compound 14]	–	could hardly be observed

Reference: paper PMC10080691, “Enzyme-Responsive Double-Locked Photodynamic Molecular Beacon for Targeted Photodynamic Anticancer Therapy” (Journal of the American Chemical Society, 2023)
